In patent US11390604B2 (Hoffmann-La Roche Inc., priority 2019, dated 2022):
Where a name gives a salt, the structure may show the parent alone.

These compounds were tested on Acinetobacter baumannii ATCC 17961 (assay: Antimicrobial susceptibility testing: 90% growth inhibitory concentration (IC90) determination). Details: ATCC17961, Acinetobacter baumannii ATCC 17961, Iso-Sensitest broth, read-out: ATCC 17961 IC90.
Assay type: cell-based
Experimental: Antimicrobial Susceptibility Testing:
90% Growth Inhibitory Concentration (IC90) Determination
The in vitro antimicrobial activity of the compounds was determined according to the following procedure:
The assay used a 10-points Iso-Sensitest broth medium to measure quantitatively the in vitro activity of the compounds against Acinetobacter baumannii ATCC 17961.
Stock compounds in DMSO were serially twofold diluted (e.g. range from 50 to 0.097 μM final concentration) in 384 wells microtiter plates and inoculated with 49 μl the bacterial suspension in Iso-Sensitest medium to have a final cell concentration of ˜5×10^(5) CFU/ml in a final volume/well of 50 ul/well. Microtiter plates were incubated at 35±2° C.
Bacterial cell growth was determined with the measurement of optical density at X=600 nm each 20 minutes over a time course of 16 h. Growth inhibition was calculated during the logarithmic growth of the bacterial cells with determination of the concentration inhibiting 50% (IC50) and 90% (IC90) of the growth.
Table 1 provides the 90% growth inhibitory concentrations (IC90) in micromoles per liter of the compounds of present disclosure obtained against the strain Acinetobacter baumannii ATCC 17961.

Row | SMILES | IC90 [nM]
1 | Cn1c(-c2cn(CC3CCCC3)nc2C(F)(F)F)cnc1C(=O)Nc1ccc(C(=O)N2CCN(C(=O)C3CCNCC3)CC2)c(Cl)c1 [Example 304, N-(3-chloro-4-(4-(piperidine-4-carbonyl)piperazine-1-carbonyl)phenyl)-5-(1-(cyclopentylmethyl)-3-(trifluoromethyl)-1H-pyrazol-4-yl)-1-methyl-1H-imidazole-2-carboxamide hydrochloride] | 371
2 | Cc1cc(NC(=O)c2ncc(-c3c[nH]nc3C(F)(F)F)n2C)ccc1C(=O)N1CCN(C(=O)C2CCNCC2)CC1 [Example 29, 1-Methyl-N-(3-methyl-4-(4-(piperidine-4-carbonyl)piperazine-1-carbonyl)phenyl)-5-(3-(trifluoromethyl)-1H-pyrazol-4-yl)-1H-imidazole-2-carboxamide dihydrochloride] | 1450
3 | Cn1c(-c2cn(C3CC3(F)F)nc2C(F)(F)F)cnc1C(=O)Nc1ccc(C(=O)N2CCC(F)(CN)CC2)c(Cl)c1 (stereo not drawn) [Example 201, N-(4-(4-(aminomethyl)-4-fluoropiperidine-1-carbonyl)-3-chlorophenyl)-5-(1-(2,2-difluorocyclopropyl)-3-(trifluoromethyl)-1H-pyrazol-4-yl)-1-methyl-1H-imidazole-2-carboxamide formate] | 216
4 | Cn1c(-c2cn(C3CC3)nc2C(F)(F)F)cnc1C(=O)Nc1ccc(C(=O)NCCCCCN)c(Cl)c1 [Example 221, N-(4-((5-aminopentyl)carbamoyl)-3-chlorophenyl)-5-(1-cyclopropyl-3-(trifluoromethyl)-1H-pyrazol-4-yl)-1-methyl-1H-imidazole-2-carboxamide hydrochloride] | 246
5 | Cn1c(-c2cn(CC#CCN)nc2C(F)(F)F)cnc1C(=O)Nc1ccc(C(=O)N2CCN(C(=O)C3CCNCC3)CC2)c(Cl)c1 [Example 17, 5-(1-(4-aminobut-2-yn-1-yl)-3-(trifluoromethyl)-1H-pyrazol-4-yl)-N-(3-chloro-4-(4-(piperidine-4-carbonyl)piperazine-1-carbonyl)phenyl)-1-methyl-1H-imidazole-2-carboxamide dihydrochloride] | 607
6 | CCC#CCn1cc(-c2cnc(C(=O)Nc3ccc(C(=O)N4CCN(C(=O)C5CCNCC5)CC4)c(Cl)c3)n2C)c(C(F)(F)F)n1 [Example 19, N-(3-chloro-4-(4-(piperidine-4-carbonyl)piperazine-1-carbonyl)phenyl)-1-methyl-5-(1-(pent-2-yn-1-yl)-3-(trifluoromethyl)-1H-pyrazol-4-yl)-1H-imidazole-2-carboxamide hydrochloride] | 172
7 | CCc1cc(NC(=O)c2ncc(-c3cn(CC#N)nc3C(F)(F)F)n2C)ccc1C(=O)N1CCN(C(=O)NCC2(O)CNC2)CC1 [Example 132, 4-[4-[[5-[1-(cyanomethyl)-3-(trifluoromethyl)pyrazol-4-yl]-1-methylimidazole-2-carbonyl]amino]-2-ethylbenzoyl]-N-[(3-hydroxyazetidin-3-yl)methyl]piperazine-1-carboxamide;formic acid] | 1170
8 | C#CCn1cc(-c2cnc(C(=O)Nc3ccc(C(=O)NCCOC[C@H](C)N)c(Cl)c3)n2C)c(C(F)(F)F)n1 [Example 47, (S)-N-(4-((2-(2-aminopropoxy)ethyl)carbamoyl)-3-chlorophenyl)-1-methyl-5-(1-(prop-2-yn-1-yl)-3-(trifluoromethyl)-1H-pyrazol-4-yl)-1H-imidazole-2-carboxamide 2,2,2-trifluoroacetate] | 428
9 | C#CCn1cc(-c2cnc(C(=O)Nc3ccc(C(=O)N4CCN(C(=O)N5CC6(CCN6)C5)CC4)c(Cl)c3)n2C)c(C(F)(F)F)n1 [Example 91, N-[3-chloro-4-[4-(1,6-diazaspiro[3.3]heptane-6-carbonyl)piperazine-1-carbonyl]phenyl]-1-methyl-5-[1-prop-2-ynyl-3-(trifluoromethyl)pyrazol-4-yl]imidazole-2-carboxamide] | 170
